Assays:
human JAK1 = biological target: T1, human JAK1 (Homo sapiens, UniProt P23458); assay: JAK1 kinase enzyme assay (Alphascreen); type: biochemical; details: 80 or 625 um ATP
T1 construct: The kinase domain of human JAK1 was amplified; GST (N); made in house; host or cells: Sf9 (Spodoptera frugiperda) insect cells, baculovirus
Procedure: For screening purposes, compounds (in 100% DMSO) were warmed at 37 degrees for at least 20 minutes before use. A […] stock was initially made in assay buffer, where the final concentration of DMSO was 0.3%. The stocks were then diluted in 384 well Optiplates (Packard) where the final concentration of the compound was 5 μM.
The kinase domain of human JAK1 was amplified from U937mRNA using the polymerase chain reaction with the following primers: […]
The JAK1 PCR products were cloned into the pDest20 destination vector (Gibco). The JAK1 plasmid was then transformed into competent DH10Bac cells (Gibco), and the recombinant baculovirus was prepared via Sf9 insect cell transfection.
Baculovirus preparations from each of the JAK family members were infected into one litre of Sf9 (Spodoptera frugiperda) cells (Invitrogen) grown in SF900II serum free medium (Invitrogen) to a cell density of approximately 2×10^6 cells/ml. Cells were infected with virus at a cell culture to virus stock ratio of 20:1. Cells were harvested and lysed 48 hours post infection. The GST-tagged JAK kinase domains were purified by affinity chromatography on a GSH agarose column (Scientifix).
Kinase assays were performed in 384 well Optiplates (Packard) using an Alphascreen Protein Tyrosine KinaseP100 detection kit The compounds were pre-incubated with affinity purified PTK domain in the presence of phosphotyrosine assay buffer (10 mM HEPES, pH 7.5, 100 mM MgCl2, 25 mM NaCl, 200 mM sodium vanadate and 0.1% Tween 20) for 20 minutes. The compounds were then incubated with substrate in the presence of either 80 or 625 um ATP for 60 or 90 minutes. The substrate used was either susbtrate-1 with the sequence biotin-EGPWLEEEEEAYGWMDF-NH2 [SEQ. ID. NO. 13] (final concentration 111 μM) or susbtrate-2 substrate with the sequence biotin-EQEDEPEGDYFEWLEPE (final concentration 133 μM). Alphascreen phosphotyrosine acceptor beads followed by streptavidin donor beads at a concentration of 1/100 in stop buffer were added to each well under subdued light and incubated for 2-3 hours. The Alphascreen plates were read on a Packard Fusion Alpha instrument.

human JAK2 = biological target: T2, human JAK2 (Homo sapiens, UniProt O60674); assay: JAK2 kinase enzyme assay (Alphascreen); type: biochemical; details: 80 or 625 um ATP
T2 construct: The kinase domain of human JAK2 was amplified; GST (N); made in house; host or cells: Sf9 (Spodoptera frugiperda) insect cells, baculovirus
How it was run: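 Compounds at 5 μM final were pre-incubated 20 min with Sf9-expressed GST-JAK2 kinase domain in HEPES pH 7.5 phosphotyrosine buffer, then incubated 60 or 90 min with 80 or 625 um ATP. Substrate was biotinylated peptide 1 (111 μM final) or peptide 2 (133 μM final). Phosphotyrosine was detected by AlphaScreen acceptor/streptavidin donor beads after 2–3 h.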

human JAK3 = biological target: T3, human JAK3 (Homo sapiens, UniProt P52333); assay: JAK3 kinase enzyme assay (Alphascreen); type: biochemical; details: 80 or 625 um ATP
T3 construct: The kinase domain of human JAK3 was amplified; GST (N); made in house; host or cells: Sf9 (Spodoptera frugiperda) insect cells, baculovirus
How it was run: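 Sf9-expressed GST-tagged human JAK3 kinase domain was pre-incubated 20 min with compound at 5 μM final in HEPES pH 7.5 buffer. Then 60 or 90 min reaction with 80 or 625 μM ATP and biotinylated peptide substrate at 111 or 133 μM. AlphaScreen phosphotyrosine acceptor and streptavidin donor beads, 2–3 h.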

BafT_J2 = assay: Cellular screening, BaF3 TEL:JAK2 cells (Alamar Blue); type: cell-based; details: Mus musculus, 40 hr incubation
How it was run: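 BaF3 cells expressing a TEL–JAK2 kinase-domain fusion, growth-factor independent, were exposed to compounds for 40 hr at 37° C, 5% CO2. Screening concentration was 20 μM in the dilution plate, added as 10× final. Viability read with Alamar Blue after a further 4-6 h, at 544 nm.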

BAF3wt = assay: Cellular screening, BaF3 wild-type cells (Alamar Blue); type: cell-based; details: Mus musculus, 40 hr incubation
How it was run: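 BaF3 wild-type cells grown in DMEM with 10% FCS and 10% WEHI 3B conditioned medium, incubated with compound for 40 h at 37 °C, 5% CO2. Viability read by Alamar Blue after a further 4-6 h, at 544 nm; screening concentration 20 μM in dilution plate.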

BafT_J3 = assay: Cellular screening, BaF3 TEL:JAK3 cells (Alamar Blue); type: cell-based; details: Mus musculus, 40 hr incubation
How it was run: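 Growth-factor-independent BaF3 tet-off cells express a TEL(nt 1–487)/JAK3 kinase-domain fusion and are grown without WEHI 3B medium. Compound plates were prepared at 20 μM and added as 10× final. After 40 h at 37 °C, 5% CO2, Alamar Blue was added for 4–6 h and read at 544 nm.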

CTLL2 = assay: Cellular screening, CTLL2 cells (Alamar Blue); type: cell-based; details: Mus musculus, CTLL-2, 40 hr incubation
How it was run: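 CTLL2 cells in late log phase were incubated with compounds, from screening plates at 20 μM, for 40 hr at 37° C, 5% CO2. Viability was read by Alamar Blue, added for a further 4-6 hours, with the read at 544 nm.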

T1 sequence (P23458 875-1153 limits assumed): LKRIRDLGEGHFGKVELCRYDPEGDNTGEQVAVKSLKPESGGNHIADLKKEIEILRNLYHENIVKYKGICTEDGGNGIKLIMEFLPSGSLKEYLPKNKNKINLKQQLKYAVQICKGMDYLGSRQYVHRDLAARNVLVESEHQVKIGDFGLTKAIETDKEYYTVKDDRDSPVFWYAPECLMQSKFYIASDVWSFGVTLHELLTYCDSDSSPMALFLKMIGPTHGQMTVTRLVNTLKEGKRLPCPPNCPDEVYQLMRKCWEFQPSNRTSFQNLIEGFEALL
T3 sequence (P52333 822-1111 limits assumed): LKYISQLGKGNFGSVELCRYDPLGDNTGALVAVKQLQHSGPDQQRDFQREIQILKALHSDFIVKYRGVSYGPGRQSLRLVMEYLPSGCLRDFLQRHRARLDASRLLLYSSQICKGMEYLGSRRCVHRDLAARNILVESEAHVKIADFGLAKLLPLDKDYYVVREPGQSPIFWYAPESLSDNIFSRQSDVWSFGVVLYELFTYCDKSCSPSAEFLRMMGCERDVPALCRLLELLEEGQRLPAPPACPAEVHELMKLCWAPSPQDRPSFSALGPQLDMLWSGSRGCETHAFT
T2 sequence (O60674 849-1124 limits assumed): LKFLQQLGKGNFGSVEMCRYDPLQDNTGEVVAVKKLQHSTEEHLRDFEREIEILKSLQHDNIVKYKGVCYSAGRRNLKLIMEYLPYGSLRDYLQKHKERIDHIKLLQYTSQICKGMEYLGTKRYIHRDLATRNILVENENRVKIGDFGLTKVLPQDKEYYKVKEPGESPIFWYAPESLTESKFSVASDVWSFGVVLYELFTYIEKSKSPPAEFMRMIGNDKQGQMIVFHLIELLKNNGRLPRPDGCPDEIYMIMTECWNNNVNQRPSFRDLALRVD

Row | SMILES | IC50 (human JAK1) [nM] | IC50 (human JAK2) [nM] | IC50 (human JAK3) [nM] | IC50 (BafT_J2) [nM] | IC50 (BAF3wt; given as number) [nM] | IC50 (BafT_J3; given as number) [nM] | IC50 (CTLL2; given as number) [nM] | IC50 (BAF3wt) [nM] | IC50 (BafT_J3) [nM] | IC50 (CTLL2) [nM]
1 | COc1cc(-c2csc3cnc(Nc4ccc(N5CCOCC5)cc4)nc23)ccc1O [Compound 15, 2-methoxy-4-(2-(4-morpholinophenylamino)thieno[3,2-d]pyrimidin-7-yl)phenol] | < 100 | < 100 | < 100 | < 1000 | > 20000 | > 20000 | > 20000 |  |  | 
2 | CC(C)(C)NS(=O)(=O)c1cccc(-c2csc3cnc(Nc4cccc(N5CCOCC5)c4)nc23)c1 [Compound 47, N-tert-butyl-3-(2-(3-morpholinophenylamino)thieno[3,2-d]pyrimidin-7-yl)benzenesulfonamide] | < 100 | < 100 | < 500 | < 5000 |  |  |  | < 5000 | < 5000 | < 5000
3 | NS(=O)(=O)c1ccc(-c2csc3cnc(Nc4ccc(N5CCOCC5)cc4)nc23)cc1 [Compound 11, 4-(2-(4-morpholinophenylamino)thieno[3,2-d]pyrimidin-7-yl)benzenesulfonamide] | < 100 | < 100 | < 100 | < 1000 |  |  |  | < 5000 | < 5000 | < 1000
4 | Cn1cc(-c2ccc(S(N)(=O)=O)cc2)c2nc(Nc3ccc(N4CCOCC4)cc3)ncc21 [Compound 34, 4-(5-methyl-2-(4-morpholinophenylamino)-5H-pyrrolo[3,2-d]pyrimidin-7-yl)benzenesulfonamide] | < 100 | < 100 | < 500 | < 1000 |  | > 20000 | > 20000 | < 20000 |  | 
5 | COc1cc(Nc2ncc3scc(-c4cccc(S(=O)(=O)NC(C)(C)C)c4)c3n2)cc(OC)c1OC [Compound 50, N-tert-butyl-3-(2-(3,4,5-trimethoxyphenylamino)thieno[3,2-d]pyrimidin-7-yl)benzenesulfonamide] | < 100 | < 100 | < 500 | < 1000 |  |  |  | < 1000 | < 1000 | < 1000
6 | N#CCC(=O)Nc1cccc(-c2csc3cnc(Nc4ccc(N5CCOCC5)cc4)nc23)c1 [Compound 16, 2-cyano-N-(3-(2-(4-morpholinophenylamino)thieno[3,2-d]pyrimidin-7-yl)phenyl)acetamide] | < 100 | < 100 | < 100 | < 1000 |  |  |  | < 1000 | < 1000 | < 1000
7 | COc1ccc(Nc2ncc3scc(-c4cccc(S(=O)(=O)NC(C)(C)C)c4)c3n2)cc1OC [Compound 53, N-tert-butyl-3-(2-(3,4-dimethoxyphenylamino)thieno[3,2-d]pyrimidin-7-yl)benzenesulfonamide] | < 100 | < 100 | < 500 | < 1000 |  |  |  | < 1000 | < 1000 | < 5000
8 | CS(=O)(=O)Nc1cccc(-c2csc3cnc(Nc4ccc(N5CCOCC5)cc4)nc23)c1 [Compound 18, N-(3-(2-(4-morpholinophenylamino)thieno[3,2-d]pyrimidin-7-yl)phenyl)methanesulfonamide] | < 100 | < 100 | < 100 | < 1000 |  |  |  | < 1000 | < 1000 | < 1000
9 | CS(=O)(=O)N(CC#N)c1cccc(-c2csc3cnc(Nc4ccc(N5CCOCC5)cc4)nc23)c1 [Compound 31, N-(cyanomethyl)-N-(3-(2-(4-morpholinophenylamino)thieno[3,2-d]pyrimidin-7-yl)phenyl)methanesulfonamide] | < 100 | < 100 | < 100 | < 1000 |  |  |  | < 1000 | < 1000 | < 1000
10 | CS(=O)(=O)Nc1ccc(-c2csc3cnc(Nc4ccc(N5CCOCC5)cc4)nc23)cc1 [Compound 14, N-(4-(2-(4-morpholinophenylamino)thieno[3,2-d]pyrimidin-7-yl)phenyl)methanesulfonamide] | < 100 | < 100 | < 100 | < 1000 |  |  |  | < 1000 | < 1000 | < 1000
11 | CCNC(=O)Nc1ccc(-c2csc3cnc(Nc4ccc(N5CCOCC5)cc4)nc23)cc1OC [Compound 13, 1-ethyl-3-(2-methoxy-4-(2-(4-morpholinophenylamino)thieno[3,2-d]pyrimidin-7-yl)phenyl)urea] | < 500 | < 100 | < 100 | < 1000 |  |  |  | < 1000 | < 5000 | < 5000
12 | CC(C)(C)NS(=O)(=O)c1cccc(-c2csc3cnc(Nc4cccc(CO)c4)nc23)c1 [Compound 48, N-tert-butyl-3-(2-(3-(hydroxymethyl)phenylamino)thieno[3,2-d]pyrimidin-7-yl)benzenesulfonamide] | < 100 | < 100 | < 500 | < 1000 |  |  |  | < 1000 | < 1000 | < 1000
13 | COc1cc(-c2csc3cnc(Nc4ccc(N5CCOCC5)cc4)nc23)ccc1N [Compound 10, 7-(4-amino-3-methoxyphenyl)-N-(4-morpholinophenyl)thieno[3,2-d]pyrimidin-2-amine] |  | < 100 | < 100 | < 1000 |  |  |  | < 1000 | < 1000 | < 1000
14 | CCc1ccccc1-c1csc2cnc(Nc3ccc(OCCN4CCCC4)cc3)nc12 [Compound 95, 7-(2-ethylphenyl)-N-(4-(2-(pyrrolidin-1-yl)ethoxy)phenyl)thieno[3,2-d]pyrimidin-2-amine] |  | < 100 | < 100 | < 1000 |  |  |  | < 1000 | < 1000 | < 1000
15 | Nc1cccc(-c2csc3cnc(Nc4ccc(N5CCOCC5)cc4)nc23)c1 [Compound 4, 7-(3-aminophenyl)-N-(4-morpholinophenyl)thieno[3,2-d]pyrimidin-2-amine] |  | < 100 | < 100 | < 1000 |  |  |  | < 1000 | < 1000 | < 1000
16 | COc1cc(-c2csc3cnc(Nc4ccc(CN5CCOCC5)cc4)nc23)ccc1NC(C)=O [Compound 85, N-(2-methoxy-4-(2-(4-(morpholinomethyl)phenylamino)thieno[3,2-d]pyrimidin-7-yl)phenyl)acetamide] |  | < 100 | < 100 | < 1000 |  |  |  | < 1000 | < 1000 | < 1000
